According to EP0292365A2, “4-Amino-5,8-quinazolindione derivatives, process for their preparation and pharmaceutical compositions containing them” (CENTRE NATIONAL DE LA RECHERCHE SCIENTIFIQUE, priority 1987, dated 1988):

Experiments:
cellules MCF-7 = assay: Effect on cell cycle phases, MCF-7 line; format: cell-based, humaine; settings: summary of tableau D
Procedure: Les cellules tumorales en croissance exponentielle sont ensemencées (10.000 cellules/ml) dans des boîtes à Petri contenant au fond de la boîte un couvre-objet (18 x 18 mm) et 3 ml de MEM (MEM = milieu essentiel minimum) + 5 % FCS (FCS = serum de veau fetal) (v/v). Après 24 heures d'incubation, quand les cellules sont bien attachées au fond de la boîte, le milieu est remplacé par MEM expérimental contenant 5 % FCS (v/v) et enrichi, par exemple de : • a) 3 ml du milieu (MEM + 5 % FCS) = témoins • b) 3 ml du milieu contenant une dose élevée du composé à tester : 10 µg/ml : (M) • c) milieu contenant une faible dose du composé à tester : 0.01 µg/ml (f) respectivement aux jours 1, 2, 3 et 4 après addition du milieu expérimental dans les boîtes de Petri. Trois couvre-objets sont fixés pour chaque condition expérimentale : éthanol 95° (75 v), formol neutre à 40 % (20 v), acide acétique (5 v), pendant 10 minutes. Les cellules témoins cultivées dans le milieu expérimental sans le produit à tester sont fixées au même moment. A la fin de la fixation, les couvre-objets sont retournés et montés sur des lames histologiques à l'aide de produit commercialisé sous la marque DPX par la Société British Drug House et conservés à l'abri de la lumière et à 4° en attendant d'être colorés.
Les lames avec les couvre-objets sont colorées par une réaction de Feulgen modifiée. […]

lignée HBL = assay: Effect on cell cycle phases (cell kinetics parameters), HBL line; format: cell-based, humaine; settings: for G2±M / GO-G1 / S / G2+M / G1-GO: HBL
Procedure: Les cellules tumorales en croissance exponentielle sont ensemencées (10.000 cellules/ml) dans des boîtes à Petri contenant au fond de la boîte un couvre-objet (18 x 18 mm) et 3 ml de MEM (MEM = milieu essentiel minimum) + 5 % FCS (FCS = serum de veau fetal) (v/v). […] Trois couvre-objets sont fixés pour chaque condition expérimentale : éthanol 95° (75 v), formol neutre à 40 % (20 v), acide acétique (5 v), pendant 10 minutes. Les cellules témoins cultivées dans le milieu expérimental sans le produit à tester sont fixées au même moment. A la fin de la fixation, les couvre-objets sont retournés et montés sur des lames histologiques à l'aide de produit commercialisé sous la marque DPX par la Société British Drug House et conservés à l'abri de la lumière et à 4° en attendant d'être colorés.
Les lames avec les couvre-objets sont colorées par une réaction de Feulgen modifiée. Toutes les lames d'une condition expérimentale sont conditionnées par le réactif de Feulgen en même temps, pendant une heure, après hydrolyse dans un milieu HCI 6N pendant une heure à 20° C. Les préparations cellulaires sont ensuite conservées à l'abri de la lumière et à 4°C en attendant l'analyse.
Grâce à un système d'analyse microscopique à balayage automatique, on détermine l'effet de la drogue sur la croissance cellulaire, au cours du temps, sur deux lignées cellulaires tumorales d'origine humaine : la lignée MCF-7 d'origine mammaire et la lignée HBL (mélanome malin).
On a représenté sur le tableau D BIS les résultats relatifs aux effets du composé 63 au cours du temps sur les différentes phases du cycle cellulaire (lignée HBL) où il est possible d'observer le nombre de cellules survivant à chaque phase du cycle cellulaire.
Dans les tableaux, GO-G1, S et G2 + M correspondent à des différentes phases de multiplication des cellules, telles qu'elles sont définies dans "Cell proliferation kinetics of MCF-7 human mammary carcinome cells in culture and effects of tamoxifen on exponentially growing and plateau - phase cells" R.L. Sutherland, R.E. Hall and I.W. Taylor, Cancer Research 43, pp. 3998 à 4006, 1983.

[1] = Determination of toxicity (DLo), single intraperitoneal dose; format: in vivo; settings: voie intrapéritonéale, dose unique, souris Swiss, suivies pendant un mois
Source text: Ils sont tous administrés, par voie intrapéritonéale (ip), à des souris Swiss de 22 ± 2 g, à doses uniques exprimées en mg/kg de poids corporel. Les animaux sont suivis pendant un mois. La mortalité et les signes de toxicité sont relevés. On détermine ainsi la DLoqui sera la dose maximale utilisée pour la détermination de l'activité antitumorale.

CN(C)CCCNc1ncnc2c1C(=O)C(N1CC1)=C(N1CC1)C2=O [composé 63]
effet sur le cycle cellulaire (MCF-7) (cellules MCF-7): bloque les cellules en phase S
G2±M (lignée HBL; F (10µg/ml), 1 jour): 14.0 ± 0.1 ns
GO-G1 (lignée HBL; F (10µg/ml), 1 jour): 62.7 ± 2.0 ns
S (lignée HBL; F (10µg/ml), 1 jour): 23.3 ± 2.0 ns
G2+M (lignée HBL; F (10µg/ml), 2 jours): 13.3 ± 2.2 ns
GO-G1 (lignée HBL; F (10µg/ml), 2 jours): 58.7 ± 0.9
S (lignée HBL; F (10µg/ml), 2 jours): 28.0 ± 2.1
G2+M (lignée HBL; F (10µg/ml), 3 jours): 12.3 ± 0.7 ns
GO-G1 (lignée HBL; F (10µg/ml), 3 jours): 59.7 ± 0.9
S (lignée HBL; F (10µg/ml), 3 jours): 28.0 ± 1.0
G1-GO (lignée HBL; F (10µg/ml), 4 jours): 59.0 ± 1.5 ns
G2+M (lignée HBL; F (10µg/ml), 4 jours): 12.3 ± 1.9 ns
S (lignée HBL; F (10µg/ml), 4 jours): 28.7 ± 0.7 ns
G2±M (lignée HBL; M (1µg/ml), 1 jour): 12.7 ± 1.5 ns
GO-G1 (lignée HBL; M (1µg/ml), 1 jour): 62.3 ± 1.9 ns
S (lignée HBL; M (1µg/ml), 1 jour): 25.0 ± 3.6 ns
G2+M (lignée HBL; M (1µg/ml), 2 jours): 13.7 ± 1.2 ns
GO-G1 (lignée HBL; M (1µg/ml), 2 jours): 58.3 ± 1.3
S (lignée HBL; M (1µg/ml), 2 jours): 28.0 ± 1.0
G2+M (lignée HBL; M (1µg/ml), 3 jours): 15.3 ± 1.3 ns
GO-G1 (lignée HBL; M (1µg/ml), 3 jours): 56.7 ± 1.8
S (lignée HBL; M (1µg/ml), 3 jours): 28.0 ± 3.1
G1-GO (lignée HBL; M (1µg/ml), 4 jours): 58.0 ± 0.6 ns
G2+M (lignée HBL; M (1µg/ml), 4 jours): 16.0 ± 2.1
S (lignée HBL; M (1µg/ml), 4 jours): 26.0 ± 1.7 ns
G2±M (lignée HBL; f (0.1µg/ml), 1 jour): 12.7 ± 1.2 ns
GO-G1 (lignée HBL; f (0.1µg/ml), 1 jour): 56.0 ± 1.5
S (lignée HBL; f (0.1µg/ml), 1 jour): 31.3 ± 2.6
G2+M (lignée HBL; f (0.1µg/ml), 2 jours): 10.3 ± 2.2 ns
GO-G1 (lignée HBL; f (0.1µg/ml), 2 jours): 53.0 ± 1.5
S (lignée HBL; f (0.1µg/ml), 2 jours): 36.7 ± 3.7
G2+M (lignée HBL; f (0.1µg/ml), 3 jours): 11.0 ± 0.6 ns
GO-G1 (lignée HBL; f (0.1µg/ml), 3 jours): 53.7 ± 1.3
S (lignée HBL; f (0.1µg/ml), 3 jours): 35.3 ± 0.9
G1-GO (lignée HBL; f (0.1µg/ml), 4 jours): 53.3 ± 1.2
G2+M (lignée HBL; f (0.1µg/ml), 4 jours): 14.0 ± 2.3 ns
S (lignée HBL; f (0.1µg/ml), 4 jours): 32.7 ± 3.5 ns
effet sur le cycle cellulaire (HBL) (lignée HBL; summary of tableau D BIS): bloque les cellules en phase S
DLo [1]: ~3 mg/kg
